US8415475B2, “Antibacterial quinoline derivatives” (Janssen Pharmaceutica N.V., priority 2006, dated 2013)
In brackets after ≈: the same amount, converted by molar mass.

What was measured:
[1] = system: Staphylococcus aureus (ATCC29213); test: In-vitro anti-bacterial microtitre plate assay, IC90, S. aureus; assay type: cell-based; conditions: 90% inhibitory concentration for bacterial growth, resazurin fluorescence; for IC90: Staphylococcus aureus, ATCC29213, 24 h, read-out: IC90 values STA 1 B29213; for IC90 values STA 1 B29213: 24 hours
Protocol: (§1) D.3. In-Vitro Method for Testing Compounds for Anti-Bacterial Activity Against Various Non-Mycobacterial Strains The bacteria used in this study were grown overnight in flasks containing 100 ml Mueller-Hinton Broth (Becton Dickinson-cat. no. 275730) in sterile de-ionized water, with shaking, at 37° C. Stocks (0.5 ml/tube) were stored at -70° C. until use. Bacteria titrations were performed in microtiter plates to detect the TCID50, in which the TCID50 represents the dilution that gives rise to bacterial growth in 50% of inoculated cultures. In general, an inoculum level of approximately 100 TCID50 was used for susceptibility testing. Flat-bottom, sterile 96-well plastic microtiter plates were filled with 180 μl of sterile deionized water, supplemented with 0.25% BSA. Subsequently, stock solutions (7.8× final test concentration) of compounds were added in 45 μl volumes in column 2. Serial five-fold dilutions (45 μl in 180 μl) were made directly in the microtiter plates from column 2 to reach column 11. Untreated control samples with (column 1) and without (column 12) inoculum were included in each microtiter plate. Depending on the bacteria type, approximately 10 to 60 CFU per well of bacteria inoculum (100 TCID50), in a volume of 100 μl in 2.8× Mueller-Hinton broth medium, was added to the rows […]. The same volume of broth medium without inoculum was added to column 12 in row A to H. The cultures were incubated at 37° C. for 24 hours under a normal atmosphere (incubator with open air valve and continuous ventilation). At the end of incubation, one day after inoculation, the bacterial growth was quantitated fluorometrically. Therefore resazurin (0.6 mg/ml) was added in a volume of 20 μl to all wells 3 hours after inoculation, and the plates were re-incubated overnight. A change in colour from blue to pink indicated the growth of bacteria. The fluorescence was read in a computer-controlled fluorometer (Cytofluor Biosearch) at an excitation wavelength of 530 nm and an emission wavelength of 590 nm. The % growth inhibition achieved by the compounds was calculated according to standard methods.

[2] = system: Streptococcus pneumoniae (ATCC6305); test: In-vitro anti-bacterial microtitre plate assay, IC90, S. pneumoniae; assay type: cell-based; conditions: 90% inhibitory concentration for bacterial growth, resazurin fluorescence; for IC90: Streptococcus pneumoniae, ATCC6305, 24 h, read-out: IC90 values SPN 1 6305; for IC90 values SPN 1 6305: 24 hours
Protocol: as §1

[3] = system: Mycobacterium tuberculosis (strain H37RV); test: In-vitro method for testing compounds against M. tuberculosis; assay type: cell-based; conditions: 90% inhibitory concentration for bacterial growth, 7 days, Middlebrook broth, resazurin fluorescence; for IC90: Mycobacterium tuberculosis, H37RV, 168 h, read-out: IC90 values MTB 1 H37RV
M. Smegmatis (ATCC607) = test: In-vitro anti-bacterial activity against strain M. smegmatis ATCC607; assay type: cell-based; conditions: 90% inhibitory concentration for bacterial growth, Alamar Blue fluorescence; for IC90: Mycolicibacterium smegmatis, ATCC607, 48 h, read-out: IC90 values MSM 1 ATCC607; for IC90 values MSM 1 ATCC607: 48 hours
Protocol: D.2. In-Vitro Method for Testing Compounds for Anti-Bacterial Activity Against Strain M. smegmatis ATCC607. Flat-bottom, sterile 96-well plastic microtiter plates were filled with 180 μl of sterile deionized water, supplemented with 0.25% BSA. Subsequently, stock solutions (7.8× final test concentration) of compounds were added in 45 μl volumes to a series of duplicate wells in column 2 so as to allow evaluation of their effects on bacterial growth. Serial five-fold dilutions (45 μl in 180 μl) were made directly in the microtiter plates from column 2 to 11 using a customised robot system (Zymark Corp., Hopkinton, Mass.). Pipette tips were changed after every 3 dilutions to minimize pipetting errors with high hydrophobic compounds. Untreated control samples with (column 1) and without (column 12) inoculum were included in each microtiter plate. Approximately 250 CFU per well of bacteria inoculum, in a volume of 100 μl in 2.8× Mueller-Hinton broth medium, was added to the rows […]. The same volume of broth medium without inoculum was added to column 12 in row A to H. The cultures were incubated at 37° C. for 48 hours in a humidified 5% CO2 atmosphere (incubator with open air valve and continuous ventilation). At the end of incubation, two days after inoculation, the bacterial growth was quantitated fluorometrically. Therefore Alamar Blue (10×) was added to all wells in a volume of 20 μl and plates were incubated for another 2 hours at […] The fluorescence was read in a computer-controlled fluorometer (Cytofluor, Biosearch) at an excitation wavelength of 530 nm and an emission wavelength of 590 nm (gain 30).

[4] = system: Enterococcus faecalis (ATCC29212); test: In-vitro anti-bacterial microtitre plate assay, IC90, E. faecalis; assay type: cell-based; conditions: 90% inhibitory concentration for bacterial growth, resazurin fluorescence; for IC90: Enterococcus faecalis, ATCC29212, 24 h, read-out: IC90 values EFA 29212; for IC90 values EFA 29212: 24 hours
Protocol: as §1

[5] = system: Streptococcus pyogens (ATCC8668); test: In-vitro anti-bacterial microtitre plate assay, IC90, S. pyogens; assay type: cell-based; conditions: 90% inhibitory concentration for bacterial growth, resazurin fluorescence; for IC90: Streptococcus, ATCC8668, 24 h, read-out: IC90 values SPY 8668; for IC90 values SPY 8668: 24 hours
Protocol: as §1

[6] = system: Pseudomonas aeruginosa (ATCC27853); test: In-vitro anti-bacterial microtitre plate assay, IC90, P. aeruginosa; assay type: cell-based; conditions: 90% inhibitory concentration for bacterial growth, resazurin fluorescence; for IC90: Pseudomonas aeruginosa, ATCC27853, 24 h, read-out: IC90 values PAE 27853; for IC90 values PAE 27853: 24 hours
Protocol: as §1

[7] = system: Escherichia coli (ATCC35218); test: In-vitro anti-bacterial microtitre plate assay, IC90, E. coli; assay type: cell-based; conditions: 90% inhibitory concentration for bacterial growth, resazurin fluorescence; for IC90: Escherichia coli, ATCC35218, 24 h, read-out: IC90 values ECO 35218; for IC90 values ECO 35218: 24 hours
Protocol: as §1

Row | SMILES | IC90 [1] [µg/mL] | IC90 [2] [µg/mL] | IC90 [3] [µg/mL] | IC90 (M. Smegmatis (ATCC607)) [µg/mL] | melting point [°C] | IC90 [4] [µg/mL] | IC90 [5] [µg/mL] | IC90 [6] [µg/mL] | IC90 [7] [µg/mL] | IC90 values STA 1 B29213 [1] [µg/mL] | IC90 values SPN 1 6305 [2] [µg/mL] | IC90 values MTB 1 H37RV [3] [µg/mL] | IC90 values MSM 1 ATCC607 (M. Smegmatis (ATCC607)) [µg/mL] | IC90 values EFA 29212 [4] [µg/mL] | IC90 values SPY 8668 [5] [µg/mL] | IC90 values ECO 35218 [7] [µg/mL] | IC90 values PAE 27853 [6] [µg/mL]
1 | COc1nc2ccc(CNC(C)=O)cc2cc1C(c1ccccc1)C(O)(CCN(C)C)c1cccc2ccccc12 (single isomer, unassigned) [Compound 27] | 34.6 (≈ 63.2 µM) | 8.7 (≈ 15.9 µM) | 21.8 (≈ 39.8 µM) | 4.4 (≈ 8.03 µM) | 203 |  |  |  |  |  |  |  |  |  |  |  | 
2 | COc1nc2ccc(N3CCOCC3)cc2cc1C(c1ccccc1)C(O)(CCN(C)C)c1cccc2ccccc12 (single isomer, unassigned) [Compound 30] | 44.6 (≈ 79.4 µM) | 14.1 (≈ 25.1 µM) | 8.9 (≈ 15.8 µM) | 0.1 (≈ 0.178 µM) | 210 | 44.6 (≈ 79.4 µM) | 44.6 (≈ 79.4 µM) | 22.4 (≈ 39.8 µM) | 56.2 (≈ 100 µM) |  |  |  |  |  |  |  | 
3 | COc1nc2ccc(C(=O)N3CCN(C)CC3)cc2cc1C(c1ccccc1)C(O)(CCN(C)C)c1cccc2ccccc12 (single isomer, unassigned) [Compound 31] | 38 (≈ 63 µM) | 10.7 (≈ 17.8 µM) | 4.8 (≈ 7.96 µM) | 0.4 (≈ 0.664 µM) | 195 |  |  |  |  |  |  |  |  |  |  |  | 
4 | C=Cc1ccc2nc(OC)c(C(c3ccccc3)C(O)(CCN(C)C)c3cccc4ccccc34)cc2c1 (single isomer, unassigned) [Compound 8] |  |  | 3.6 (≈ 7.16 µM) |  |  | 50.3 (≈ 100 µM) | 50.3 (≈ 100 µM) | 44.8 (≈ 89.1 µM) | 50.3 (≈ 100 µM) | 50.3 (≈ 100 µM) | 2.0 (≈ 3.98 µM) |  |  |  |  |  | 
5 | COc1nc2ccc(N)cc2cc1C(c1ccccc1)C(O)(CCN(C)C)c1cccc2ccccc12 (single isomer, unassigned) [Compound 15] |  |  |  |  | 205 |  |  |  |  | 7.8 (≈ 15.9 µM) | 7.8 (≈ 15.9 µM) | 1.6 (≈ 3.25 µM) | 0.3 (≈ 0.61 µM) |  |  |  | 
6 | COc1nc2ccc(/C=N/O)cc2cc1C(c1ccccc1)C(O)(CCN(C)C)c1cccc2ccccc12 (single isomer, unassigned) [Compound 23] |  |  | 7.3 (≈ 14 µM) |  | 187 | 18.4 (≈ 35.5 µM) | 8.24 (≈ 15.9 µM) | 8.24 (≈ 15.9 µM) | 52 (≈ 100 µM) | 6.5 (≈ 12.5 µM) | 0.3 (≈ 0.577 µM) |  | 0.3 (≈ 0.577 µM) |  |  |  | 
7 | COc1nc2ccc(N3CCOCC3)cc2cc1C(c1ccccc1)C(O)(CCN(C)C)c1ccccc1 (single isomer, unassigned) [Compound 36] |  |  |  |  | 190 |  |  |  |  | 51.2 (≈ 100 µM) | 51.2 (≈ 100 µM) |  | 8.1 (≈ 15.8 µM) | 51.2 (≈ 100 µM) | 40.6 (≈ 79.3 µM) | 51.2 (≈ 100 µM) | 
8 | COc1nc2ccc(CN)cc2cc1C(c1ccccc1)C(O)(CCN(C)C)c1cccc2ccccc12 (stereo not drawn) [Compound 18] |  |  |  |  |  |  |  |  |  | 8.0 (≈ 15.8 µM) | 3.6 (≈ 7.12 µM) | 1.6 (≈ 3.16 µM) | 0.4 (≈ 0.791 µM) | 17.94 (≈ 35.5 µM) | 6.37 (≈ 12.6 µM) | 8.01 (≈ 15.8 µM) | 8.01 (≈ 15.8 µM)
9 | COc1nc2ccc(N3CCOCC3)cc2cc1C(c1ccccc1)C(O)(CCN(C)C)c1ccccc1 (single isomer, unassigned) [Compound 5] | 40.6 (≈ 79.3 µM) |  |  |  |  | 40.6 (≈ 79.4 µM) | 40.6 (≈ 79.4 µM) |  | 51.2 (≈ 100 µM) |  | 9.1 (≈ 17.8 µM) |  | 0.04 (≈ 0.0782 µM) |  |  |  | 
10 | C=Cc1ccc2nc(OC)c(C(c3ccccc3)C(O)(CCN(C)C)c3cccc4ccccc34)cc2c1 (stereo not drawn) [Compound 9] | 50.3 (≈ 100 µM) | 0.3 (≈ 0.597 µM) | 0.2 (≈ 0.398 µM) | 0.003 (≈ 0.00597 µM) |  | 50.3 (≈ 100 µM) | 50.3 (≈ 100 µM) | 50.3 (≈ 100 µM) | 50.3 (≈ 100 µM) |  |  |  |  |  |  |  | 
11 | CO/N=C/c1ccc2nc(OC)c(C(c3ccccc3)C(O)(CCN(C)C)c3cccc4ccccc34)cc2c1 (single isomer, unassigned) [Compound 25] |  |  |  | 0.3 (≈ 0.562 µM) | 228 |  |  |  | 53.4 (≈ 100 µM) | 8.5 (≈ 15.9 µM) | 2.1 (≈ 3.94 µM) | 1.7 (≈ 3.19 µM) |  | 8.46 (≈ 15.9 µM) | 8.46 (≈ 15.9 µM) |  | 8.46 (≈ 15.9 µM)
12 | CO/N=C/c1ccc2nc(OC)c(C(c3ccccc3)C(O)(CCN(C)C)c3cccc4ccccc34)cc2c1 (single isomer, unassigned) [Compound 26] |  |  |  |  | 170 |  |  |  |  | 53.4 (≈ 100 µM) | 18.9 (≈ 35.4 µM) | 8.5 (≈ 15.9 µM) | 0.3 (≈ 0.562 µM) | 53.37 (≈ 100 µM) | 53.37 (≈ 100 µM) | 53.37 (≈ 100 µM) | 53.37 (≈ 100 µM)
13 | C/C=C/c1ccc2nc(OC)c(C(c3ccccc3)C(O)(CCN(C)C)c3cccc4ccccc34)cc2c1 (single isomer, unassigned) [Compound 11] |  |  |  |  | 190 |  |  | 51.7 (≈ 100 µM) |  | 51.7 (≈ 100 µM) | 1.8 (≈ 3.48 µM) |  | 0.01 (≈ 0.0194 µM) | 51.67 (≈ 100 µM) | 51.67 (≈ 100 µM) |  | 
14 | COc1nc2ccc(CN)cc2cc1C(c1ccccc1)C(O)(CCN(C)C)c1cccc2ccccc12 (stereo not drawn) [Compound 19] | 8 (≈ 15.8 µM) | 1.8 (≈ 3.56 µM) |  |  |  |  | 8.01 (≈ 15.8 µM) | 8.01 (≈ 15.8 µM) |  |  |  | 8.0 (≈ 15.8 µM) | 1.6 (≈ 3.16 µM) | 40.17 (≈ 79.4 µM) |  | 40.17 (≈ 79.4 µM) | 
